According to publication PMC2710618 (Biochemistry, 2008):
Values joined by “and” are separate entries in the source; they are usually repeats but may differ in a detail not shown here. Equal values may be shown once. “Also recorded” adds a separate entry of the source. Read-outs that look alike come from different tables or passages of the source.

Columns and labels:
[1] = target: T1, B. anthracis OSB-CoA synthetase (Bacillus anthracis, UniProt Q81K97); assay: biochemical; format: biochemical; conditions: for Km: read-out: Apparent Km
T1 sequence (Q81K97 whole entry, looked up): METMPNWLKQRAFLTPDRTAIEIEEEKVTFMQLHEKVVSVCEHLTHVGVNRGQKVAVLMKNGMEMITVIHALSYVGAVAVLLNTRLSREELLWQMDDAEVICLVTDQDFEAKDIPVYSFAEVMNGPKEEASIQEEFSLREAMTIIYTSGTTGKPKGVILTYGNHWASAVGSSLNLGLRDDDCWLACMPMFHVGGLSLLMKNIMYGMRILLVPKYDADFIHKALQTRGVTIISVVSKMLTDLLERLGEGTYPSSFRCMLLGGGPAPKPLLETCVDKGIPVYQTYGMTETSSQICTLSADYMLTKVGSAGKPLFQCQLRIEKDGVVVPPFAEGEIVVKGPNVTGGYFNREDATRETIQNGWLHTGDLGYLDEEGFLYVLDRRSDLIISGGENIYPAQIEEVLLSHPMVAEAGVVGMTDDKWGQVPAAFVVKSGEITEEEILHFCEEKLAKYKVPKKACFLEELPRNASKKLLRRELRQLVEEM

[2] = target: T1, B. anthracis OSB-CoA synthetase; assay: biochemical; format: biochemical; conditions: for Km: read-out: Km of varied substrate
[3] = target: T1, B. anthracis OSB-CoA synthetase; assay: biochemical; format: binding
B. anthracis ∆ANR strain = format: cell-based, Bacillus anthracis

SMILES: O=C(O)CCC(=O)c1ccccc1C(F)(F)F
- decrease in kcat/Km compared to OSB [1]: 100 fold

SMILES: Nc1ncnc2c1ncn2[C@@H]1O[C@H](COP(=O)(O)O)[C@@H](O)[C@H]1O [AMP]
- Ki / αKi values, range in words [2]: millimolar range
- Ki [2]: 3600 µM and 4600 µM

SMILES: Nc1ncnc2c1ncn2[C@@H]1O[C@H](COP(=O)(O)OP(=O)(O)OP(=O)(O)O)[C@@H](O)[C@H]1O [ATP]
- kcat ([1]; pH 7.5, 21°C): 2.55 ± 0.0533 s⁻¹
- Km ([1]; pH 7.5, 21°C): 26.8 ± 2.7 µM
- Kd [3]: 131 ± 22 µM
- binding to free enzyme [3]: No significant binding

SMILES: CC(C)(COP(=O)(O)OP(=O)(O)OC[C@H]1O[C@@H](n2cnc3c(N)ncnc32)[C@H](O)[C@@H]1OP(=O)(O)O)[C@@H](O)C(=O)NCCC(=O)NCCSC(=O)c1ccccc1 [Benzoyl-CoA, benzoyl-CoA]
- Inhibition pattern [2]: mixed-type
- Ki / αKi values, range in words [2]: millimolar range
- αKi [2]: 15.3 ± 2.6 mM
- Ki [2]: 3000 ± 500 µM

SMILES: CC(C)(COP(=O)(O)OP(=O)(O)OC[C@H]1O[C@@H](n2cnc3c(N)ncnc32)[C@H](O)[C@@H]1OP(=O)(O)O)[C@@H](O)C(=O)NCCC(=O)NCCS [CoA]
- kcat ([1]; pH 7.5): 2.6 ± 0.075 s⁻¹
- Km [1]: 279 µM and 194 µM and 269 µM and 231 µM
- Km ([1]; pH 7.5): 304 ± 22.1 µM
- Km [2]: 49.9 µM and 66.2 µM and 39.3 µM
- binding to enzyme-Mg^2+ATP complex [3]: no significant binding
- binding to free enzyme [3]: no significant binding

SMILES: O=C(O)CCC(=O)c1ccccc1C(F)(F)F [Compound 5, 4-(2-trifluoromethylphenyl)-4-oxobutyric acid]
- reduction in kcat compared to OSB [1]: 10 fold
- remaining activity at 1000 µM ([1]; read-out: residual activity as substrate): 5.8%

SMILES: O=C(O)CCC(=O)c1ccccc1C(=O)O [OSB, o-succinylbenzoate]
- kcat ([1]; pH 7.5, 21°C): 2.58 ± 0.06 s⁻¹
- Km ([1]; pH 7.5, 21°C): 21.9 ± 2 µM
- Km [2]: 3.6 µM and 2.8 µM
- binding to free enzyme [3]: no significant binding

SMILES: Nc1ncnc2c1ncn2[C@@H]1O[C@H](COS(=O)(=O)NC(=O)CCC(=O)c2ccccc2C(F)(F)F)[C@@H](O)[C@H]1O [TFMP-butyl-AMS, 5’-O-(N-(2-trifluoromethylphenyl)-4-oxobutyl) adenosine sulfonamide]
- Ki / αKi values, range in words [2]: low micromolar; also recorded: lower micromolar range
- αKi (affinity to enzyme-ATP complex) [2]: 108 ± 17.0 µM
- Ki [2]: 5.6 µM and 5.2 µM
- whole cell activity (B. anthracis ∆ANR strain): limited whole cell activity
